Assay results published in US6770748B2, “Bicyclonucleoside and oligonucleotide analogue” (priority 1997, dated 2004).

Experiments:
[1] = system: complementary DNA 3′-CGCAAAAAACGA-5′ (SEQ ID NO:12); assay: Melting temperature (Tm) of annealing products of antisense oligonucleotide analogues with complementary DNA sense strand; format: binding; conditions: for Tm for complementary DNA: 100 mM NaCl, 10 mM sodium phosphate buffer (pH 7.2), 4 μM antisense strand, 4 μM sense strand, UV 260 nm; for ΔTm/mod. for complementary DNA: change of Tm per modified residue versus natural strand
Procedure: (§1) The melting temperatures (Tm's) of annealing products between antisense strands, which were the various oligonucleotide analogues synthesized in Example 2, and natural DNA- or RNA-based sense strands were measured to investigate the hybridizing ability of the oligonucleotide analogues of the present invention for complementary DNA and RNA.
(§2) Each sample solution (500 μL) with end concentrations of 100 mM NaCl, 10 mM sodium phosphate buffer (pH 7.2), 4 μM antisense strand, and 4 μM sense strand, respectively, was bathed in boiling water, and slowly cooled to room temperature over the course of 10 hours. The sample solution was gradually cooled to 5° C., kept at 5° C. for a further period of 20 minutes, and then started to be measured, with a stream of nitrogen being passed through a cell chamber of a spectrophotometer (UV-2100PC, Shimadzu) for prevention of moisture condensation. The sample temperature was raised at a rate of 0.2° C./minute until 90° C., and the ultraviolet absorption at 260 nm was measured at intervals of 0.1° C. To prevent changes in the sample concentration with increases in the temperature, the cell was provided with a closure, and a drop of a mineral oil was applied onto the surface of the sample solution during measurement.

[2] = system: complementary RNA 3′-r(CGCAAAAAACGA) (SEQ ID NO:12); assay: Melting temperature (Tm) of annealing products of antisense oligonucleotide analogues with complementary RNA sense strand; format: binding; conditions: for Tm for complementary RNA: 100 mM NaCl, 10 mM sodium phosphate buffer (pH 7.2), 4 μM antisense strand, 4 μM sense strand, UV 260 nm; for ΔTm/mod. for complementary RNA: change of Tm per modified residue versus natural strand
Procedure: as §1, §2

[3] = molecular target: snake venom phosphodiesterase (Crotalus adamanteus, UniProt J3SEZ3)
Chain of snake venom phosphodiesterase (J3SEZ3 24-851 limits assumed): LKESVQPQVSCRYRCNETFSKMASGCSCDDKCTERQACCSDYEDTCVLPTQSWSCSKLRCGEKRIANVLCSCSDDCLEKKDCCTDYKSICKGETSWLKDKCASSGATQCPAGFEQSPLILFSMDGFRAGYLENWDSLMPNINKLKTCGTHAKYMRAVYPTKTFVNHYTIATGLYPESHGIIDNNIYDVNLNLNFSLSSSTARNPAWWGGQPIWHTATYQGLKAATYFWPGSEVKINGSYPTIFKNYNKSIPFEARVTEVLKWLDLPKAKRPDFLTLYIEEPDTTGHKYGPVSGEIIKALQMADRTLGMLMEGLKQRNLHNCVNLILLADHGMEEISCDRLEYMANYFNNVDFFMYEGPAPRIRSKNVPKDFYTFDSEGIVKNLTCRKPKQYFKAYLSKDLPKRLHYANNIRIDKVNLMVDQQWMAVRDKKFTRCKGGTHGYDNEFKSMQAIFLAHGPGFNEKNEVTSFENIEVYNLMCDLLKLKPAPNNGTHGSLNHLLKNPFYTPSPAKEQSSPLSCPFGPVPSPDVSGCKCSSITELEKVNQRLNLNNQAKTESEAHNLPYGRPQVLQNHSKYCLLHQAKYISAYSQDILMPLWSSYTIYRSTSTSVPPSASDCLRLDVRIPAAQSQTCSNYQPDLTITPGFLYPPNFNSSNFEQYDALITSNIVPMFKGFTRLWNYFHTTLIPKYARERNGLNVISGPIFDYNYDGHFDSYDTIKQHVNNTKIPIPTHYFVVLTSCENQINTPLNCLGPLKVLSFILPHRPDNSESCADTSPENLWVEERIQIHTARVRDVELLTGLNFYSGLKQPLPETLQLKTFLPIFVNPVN

[4] = total increase versus natural strand

With `CC(C)(C)[Si](OC[C@@]12CO[C@@H]([C@H](n3cnc4c(NCc5ccccc5)ncnc43)O1)[C@@H]2OCc1ccccc1)(c1ccccc1)c1ccccc1` as the compound, how does the melting point read?
The melting point was 80 to 81 °C.

With `CC(C)C(=O)Nc1nc2c(ncn2[C@@H]2O[C@@]3(CO[Si](c4ccccc4)(c4ccccc4)C(C)(C)C)CO[C@@H]2[C@@H]3OCc2ccccc2)c(=O)[nH]1` as the compound, how does the melting point read?
Its melting point is 99 to 100 °C.

Which “Tm for complementary DNA” value [1] does the source give for “5′-GCGTTTTTTTGCT-3′ [natural, reference compound]” here?
Its value is 47 °C.

And the “Tm for complementary RNA” value [2]?
The value was 45 °C.

Which results are given for 5′-GCGTTTTTXGCT-3′ [Compound T5X]?
Tm for complementary DNA [1]: 52 °C; ΔTm/mod. for complementary DNA [1]: +4 °C; Tm for complementary RNA [2]: 51 °C; ΔTm/mod. for complementary RNA [2]: +6 °C

Which “Tm for complementary DNA” value [1] does the source give for 5′-GCGTTTTXXGCT-3′ [Compound T4X2] here?
The value was 54 °C.

And the “ΔTm/mod. for complementary DNA” value [1]?
Its value is “+3.5 °C”.

And the “Tm for complementary RNA” value [2]?
The value was 55 °C.

What about the “ΔTm/mod. for complementary RNA” value [2] of the same compound?
The value was “+5 °C”.

Which “Tm for complementary DNA” value [1] does the source give for 5′-GCGTTTXTTGCT-3′ [Compound T3XT2] here?
Its value is 49 °C.

What about the “ΔTm/mod. for complementary DNA” value [1] of the same compound?
The value was “+2 °C”.

What about the “Tm for complementary RNA” value [2] of the same compound?
The value was 50 °C.

What about the “ΔTm/mod. for complementary RNA” value [2] of the same compound?
The value was “+5 °C”.

With 5′-GCGTTXTTTGCT-3′ [Compound T2XT3] as the compound, how does the “Tm for complementary DNA” value [1] read?
Its value is 49 °C.

What about the “ΔTm/mod. for complementary DNA” value [1] of the same compound?
Its value is “+2 °C”.

What about the “Tm for complementary RNA” value [2] of the same compound?
Its value is 49 °C.

What about the “ΔTm/mod. for complementary RNA” value [2] of the same compound?
Its value is “+4 °C”.

With 5′-GCGTTXXTTGCT-3′ [Compound T2X2T2] as the compound, how does the “Tm for complementary DNA” value [1] read?
The value was 49 °C.

What about the “ΔTm/mod. for complementary DNA” value [1] of the same compound?
The value was “+1 °C”.

And the “Tm for complementary RNA” value [2]?
Its value is 53 °C.

And the “ΔTm/mod. for complementary RNA” value [2]?
The value was “+4 °C”.

For 5′-GCGXTTTTTGCT-3′ [XT6], which “Tm for complementary DNA” value [1] is on record?
Its value is 50 °C.

What about the “ΔTm/mod. for complementary DNA” value [1] of the same compound?
Its value is “+3 °C”.

What about the “Tm for complementary RNA” value [2] of the same compound?
The value was 49 °C.

What about the “ΔTm/mod. for complementary RNA” value [2] of the same compound?
Its value is “+4 °C”.

With 5′-GCGXXTTTTGCT-3′ [Compound X2T4] as the compound, how does the “Tm for complementary DNA” value [1] read?
Its value is 51 °C.

What about the “ΔTm/mod. for complementary DNA” value [1] of the same compound?
Its value is “+2 °C”.

What about the “Tm for complementary RNA” value [2] of the same compound?
Its value is 53 °C.

And the “ΔTm/mod. for complementary RNA” value [2]?
The value was “+4 °C”.

With 5′-GCGXXXXXXGCT-3′ [Compound X6] as the compound, how does the “Tm for complementary DNA” value [1] read?
Its value is 58 °C.

And the “ΔTm/mod. for complementary DNA” value [1]?
Its value is “+1.8 °C”.

What about the “rise in Tm as compared with the natural strand, complementary DNA oligomer” value [1, 4] of the same compound?
Its value is 11 degrees.

And the “Tm for complementary RNA” value [2]?
Its value is 71 °C.

What about the “ΔTm/mod. for complementary RNA” value [2] of the same compound?
Its value is “+4.3 °C”.

And the “increase in Tm per modified residue, complementary RNA” value ([2]; per modified residue versus natural strand)?
The value was 4 degrees.

What about the “increase in Tm over the natural strand, complementary RNA” value [2, 4] of the same compound?
Its value is “more than 25 degrees”.

For 5′-GTTTTTTTTTTTC-3′ [natural type], which “time until ultraviolet absorption reached a plateau after initiation of the enzyme reaction” value [3] is on record?
The value was “about 30 minutes”.

What about the “t½ (half-life)” value ([3]; pH 8.6) of the same compound?
The value was 4.33 min.

Which melting point does the source give for `Cc1cn([C@@H]2O[C@@]3(CO)CO[C@@H]2[C@@H]3O)c(=O)[nH]c1=O` [Compound 39a, 2′-O,4′-C-methylene-5-methyluridine] here?
Its melting point is 194 to 195 °C.
